Where two headings read alike, the source gives them in different places. One block for each compound: values may come before it.
Key:
[1] = tested on: MRSA; experiment: Adjuvant broth microdilution (antibiotic MIC with SP-BIM at 50 μg/mL); type: cell-based, Staphylococcus aureus; details: Staphylococcus aureus, antibiotic alone, Table 4, read-out: MIC of antibiotic, No compound
[2] = tested on: Streptococcus pneumoniae; experiment: as above; type: cell-based; details: Streptococcus pneumoniae; Streptococcus pneumonia; antibiotic alone; Table 5; read-out: MIC of antibiotic, No compound
[3] = tested on: Klebsiella pneumoniae; experiment: as above; type: cell-based; details: Klebsiella pneumoniae; antibiotic alone; Table 7; read-out: MIC of antibiotic, No compound
[4] = tested on: Staphylococcus aureus; experiment: Checkerboard synergy (FICI) of antibiotics with SP-BIM; type: cell-based; details: Staphylococcus aureus, Staphylococcus aureus
[5] = tested on: Streptococcus pneumoniae; experiment: as above; type: cell-based
[6] = tested on: Bacillus cereus; experiment: as above; type: cell-based; details: for MIC: 24 h, antibiotic alone, read-out: MIC antibiotic only
[7] = tested on: Enterococcus faecium; experiment: as above; type: cell-based; details: Enterococcus faecium
[8] = tested on: Klebsiella pneumoniae; experiment: as above; type: cell-based
[9] = tested on: Escherichia coli; experiment: as above
[10] = tested on: Candida albicans; experiment: as above; design: MIC SP-BIM 13 only / MIC in combination: Antibiotic / MIC antibiotic only: unit not given beside the values
[11] = tested on: Escherichia coli O157:H7; experiment: Rescue concentrations of SP-BIM that reactivate antibiotic; type: cell-based
[12] = SP-BIM 9 in combination with the labelled antibiotic
[13] = SP-BIM 13 in combination with the labelled antibiotic
[14] = antibiotic in combination with SP-BIM 9
[15] = antibiotic in combination with SP-BIM 13
[16] = Streptococcus pneumoniae, antibiotic + SP-BIM 13

MIC [1]: > 250 µg/mL | MIC [2]: > 250 µg/mL | MIC [3]: 8 µg/mL | MIC ([4]; 24 h, antibiotic alone, SP-BIM 9 checkerboard, read-out: MIC antibiotic only): > 250 µg/mL | MIC ([4]; 24 h, antibiotic alone, SP-BIM 13 checkerboard, read-out: MIC antibiotic only): > 250 µg/mL | MIC ([4]; MRSA, read-out: MIC of aztreonam only, MRSA, checkerboard): 250 µg/mL | MIC in combination, Antibiotic [4, 14]: 8.0 µg/mL | MIC in combination, Antibiotic [4, 15]: 32 µg/mL | MIC in combination, Antibiotic ([5]; Streptococcus pneumoniae, antibiotic in combination with SP-BIM 13): 8 µg/mL | MIC ([6]; SP-BIM 9 checkerboard): > 250 µg/mL | MIC ([6]; SP-BIM 13 checkerboard): 250 µg/mL | MIC in combination, SP-BIM 9 ([6]; SP-BIM 9 concentration in combination with the labelled antibiotic): 63 µg/mL | MIC in combination, Antibiotic [6, 14]: 63 µg/mL | MIC in combination, Antibiotic [6, 15]: 250 µg/mL | MIC in combination, Antibiotic [8, 14]: 1 µg/mL | MIC in combination, Antibiotic [8, 15]: 8 µg/mL | MIC in combination, Antibiotic [9, 14]: 32 µg/mL | MIC ([10]; 24 h, read-out: MIC antibiotic only): > 250 µg/mL | MIC in combination: Antibiotic ([10]; MIC of the antibiotic in combination with SP-BIM 13): 250
SMILES: C[C@H]1[C@H](NC(=O)/C(=N\OC(C)(C)C(=O)O)c2csc(N)n2)C(=O)N1S(=O)(=O)O [Aztreonam, aztreonam]
FIC of SP-BIM 9 [4, 12]: 0.12 | FIC of SP-BIM 13 [4, 13]: 0.5 | Interpretation ([4]; antibiotic + SP-BIM 9): Synergy (Synergy: FICI≤0.5) | Σ FIC ([4]; antibiotic + SP-BIM 9): <0.16 | Interpretation ([4]; antibiotic + SP-BIM 13): Additive (Additive: FICI>0.5-1.0) | Σ FIC ([4]; antibiotic + SP-BIM 13): <0.6 | FIC of antibiotic ([4]; in combination with SP-BIM 9): 0.03 | FIC of antibiotic ([4]; in combination with SP-BIM 13): 0.1 | Σ FIC ([5]; Streptococcus pneumonia (title: Streptococcus pyogenes), antibiotic + SP-BIM 9): <0.00 | FIC of SP-BIM 13 ([5]; Streptococcus pneumoniae, SP-BIM 13 in combination with the labelled antibiotic): 0.3 | Interpretation [5, 16]: Synergy (Synergy: FICI≤0.5) | Σ FIC [5, 16]: <0.3 | FIC of antibiotic ([5]; Streptococcus pneumoniae, in combination with SP-BIM 13): 0.1 | FIC of SP-BIM 9 [6, 12]: 0.252 | FIC of SP-BIM 13 [6, 13]: 0.5 | Interpretation ([6]; antibiotic + SP-BIM 9): Synergy (Synergy: FICI≤0.5) | Σ FIC ([6]; antibiotic + SP-BIM 9): <0.5 | Interpretation ([6]; antibiotic + SP-BIM 13): Indifferent (Indifferent: FICI>1.0-4.0) | Σ FIC ([6]; antibiotic + SP-BIM 13): 1.5 | FIC of antibiotic ([6]; in combination with SP-BIM 9): 0.252 | FIC of antibiotic ([6]; in combination with SP-BIM 13): 1.00 | FIC of SP-BIM 13 [7, 13]: 1.0 | Interpretation ([7]; antibiotic + SP-BIM 13): Indifferent (Indifferent: FICI>1.0-4.0) | Σ FIC ([7]; antibiotic + SP-BIM 13): 2.0 | FIC of antibiotic ([7]; in combination with SP-BIM 13): 1.0 | FIC of SP-BIM 9 [8, 12]: 0.064 | FIC of SP-BIM 13 [8, 13]: 0.3 | Interpretation ([8]; antibiotic + SP-BIM 9): Synergy (Synergy: FICI≤0.5) | Σ FIC ([8]; antibiotic + SP-BIM 9): <0.1 | Interpretation ([8]; antibiotic + SP-BIM 13): Synergy (Synergy: FICI≤0.5) | Σ FIC ([8]; antibiotic + SP-BIM 13): <0.3 | FIC of antibiotic ([8]; in combination with SP-BIM 9): 0.008 | FIC of antibiotic ([8]; in combination with SP-BIM 13): 0.1 | FIC of SP-BIM 9 [9, 12]: 0.5 | FIC of SP-BIM 13 [9, 13]: 1.0 | Interpretation ([9]; antibiotic + SP-BIM 9): Synergy (Synergy: FICI≤0.5) | Σ FIC ([9]; antibiotic + SP-BIM 9): <0.8 | Interpretation ([9]; antibiotic + SP-BIM 13): Indifferent (Indifferent: FICI>1.0-4.0) | Σ FIC ([9]; antibiotic + SP-BIM 13): <2.0 | FIC of antibiotic ([9]; combination with SP-BIM 13): 1.0 | FIC of antibiotic ([9]; in combination with SP-BIM 9): 0.256 | FIC of SP-BIM 13 [10, 13]: 1.0 | Interpretation ([10]; antibiotic + SP-BIM 13): Indifferent (Indifferent: FICI>1.0-4.0) | Σ FIC ([10]; antibiotic + SP-BIM 13): <2.0 | FIC of antibiotic ([10]; combination with SP-BIM 13): 1.0

SMILES: Oc1ccc2[nH]cc(C(c3ccc(Br)cc3)c3c[nH]c4ccc(O)cc34)c2c1 [SP-BIM 26, 3,3′-((4-bromophenyl)methylene)bis(1H-indol-5-ol)]
MIC of vancomycin in combination with […] SP-BIM 26 ([11]; E. coli O157:H7): 4 µg/mL | MIC ([11]; Escherichia coli, read-out: MIC (single agent)): > 250 µg/mL

Source: patent publication US12285407B2, “Bis-indolylmethane derivatives and uses thereof” (The University of The West Indies, priority 2018, dated 2025)
